Reference: patent publication US7282590B2, “Drug conjugates” (The Research Foundation of State University of New York, priority 2004, dated 2007)

Experiments:
[1] = Cleavage of the disulfide bond in the drug-linker conjugate (drug release with cysteine as a model of glutathione, monitored by HPLC); type: physicochemical; settings: cysteine in buffer pH 7.0 / CH3CN, room temperature, after 2 hours
Procedure: In order to confirm that the designed drug-release mechanism works under physiological conditions, a control experiment was performed using an anticancer linker drug conjugate and cysteine as a model of glutathione. The results of the experiment below provide clear evidence that the drug is released according to the desired mechanism of the invention.
To a solution of the drug-linker conjugate, 2′-(5-fluoro-2-methyldisulfanylphenyl)acetyl-3′-dephenyl-3′-(2-methylpropyl)-10-propanoyldocetaxel, (4.8 mg, 0.0045 mmol) in CH3CN (1.1 mL) was added cysteine (2.20 mg, 0.018 mmol) in buffer (pH 7.0, 0.56 mL) solution. The mixture was stirred at room temperature. The progress of the disulfide cleavage and drug release process was monitored by HPLC [Conditions: C-18 column. Flow rate: H2O, 0.6 mL/min; CH3CN, 0.4 mL/min., ambient temperature] periodically. The formations of thiolactone (5-fluoro-3H-benzo[b]thiophen-2-one) (retention time=9.05 min) and taxoid (3′-dephenyl-3′-(2-methylpropyl)-10-propanoyldocetaxel) (retention time=14.01 min) as well as the disappearance of the drug-linker conjugate (retention time=18.20 min) was clearly observed.

Compound	disappearance of the drug-linker conjugate (disulfide cleavage and drug release: release of the taxoid, formation of the thiolactone) [1]	melting point [°C]
2′-(5-fluoro-2-methyldisulfanylphenyl)acetyl-3′-dephenyl-3′-(2-methylpropyl)-10-propanoyldocetaxel	completely disappeared	–
CC(C)(CC(=O)O)c1ccccc1SSc1ccccn1 [Example 7, 3-Methyl-3-[2-(pyridine-2-yldisulfanyl)phenyl]butanoic acid]	–	122 to 125
